Test results as given in article PMC4403311, “Making water-soluble integral membrane proteins in vivo using an amphipathic protein fusion strategy” (Nature Communications, 2015).
Where “and” joins values, the source holds several entries; their conditions need not be identical. Identical values can stand only once. Like-named read-outs stand apart in the source and are kept apart here.

How the values were obtained:
[1] = molecular target: T1, detergent-solubilized EmrE (Escherichia coli, UniProt P23895); assay: tryptophan fluorescence quenching titration (excitation […] nm); type: binding
T1 construct: full-length EmrE (110 aa), organic-extracted, solubilized in DDM, purified from E. coli BL21(DE3); unfused

[2] = molecular target: the molecule itself; assay: SEC; detergent-free fusion proteins after affinity purification; SEC buffer 20 mM Tris pH 7.5, 50 mM NaCl, 1 mM EDTA pH 8.0; column calibrated with Bio-Rad standards; self-association of the fusion

Molecule | stoichiometry N [2] | also measured
CC[n+]1c(-c2ccccc2)c2cc(N)ccc2c2ccc(N)cc21 [ethidium bromide] |  | Kd ([1]; read-out: Kd): 5.4 ± 0.47 µM
c1ccc([P+](c2ccccc2)(c2ccccc2)c2ccccc2)cc1 [tetraphenylphosphonium] |  | Kd ([1]; 20 mM Tris-HCl pH 7.5, 150 mM NaCl, 0.08% w/v DDM, 10 μM protein, room temperature): higher for ApoAI*-solubilized EmrE compared with its detergent-solubilized counterpart
ΔspMBP-EmrE-ApoAI* (other) MNPYIYLGGAILAEVIGTTLMKFSEGFTRLWPSVGTIICYCASFWLLAQTLAYIPTGIAYAIWSGVGIVLISLLSWGFFGQRLDLPAIIGMMLICAGVLIINLLSRSTPHLKLLDNWDSVTSTFSKLREQLGPVTQEFWDNLEKETEGLRQEMSKDLEEVKAKVQPYLDDFQKKWQEEMELYRQKVEPLRAELQEGARQKLHELQEKLSPLGEEMRDRARAHVDALRTHLAPYSDELRQRLAARLEALKENGGARLAEYHAKATEHLSTLSEKAKPALEDLRQGLLPVLESFKVSFLSALEEYTKKLNTQ | 2 and 4 | 
ΔspMBP-cyt b5-ApoAI* (other) MAEQSDEAVKYYTLEEIQKHNHSKSTWLILHHKVYDLTKFLEEHPGGEEVLREQAGGDATENFEDVGHSTDAREMSKTFIIGELHPDDRPKLNKPPETLITTIDSSSSWWTNWVIPAISAVAVALMYRLYMAEDLKLLDNWDSVTSTFSKLREQLGPVTQEFWDNLEKETEGLRQEMSKDLEEVKAKVQPYLDDFQKKWQEEMELYRQKVEPLRAELQEGARQKLHELQEKLSPLGEEMRDRARAHVDALRTHLAPYSDELRQRLAARLEALKENGGARLAEYHAKATEHLSTLSEKAKPALEDLRQGLLPVLESFKVSFLSALEEYTKKLNTQ | 8 and 4 | 
